Laboratory results from PubChem BioAssay (NCI).
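The compound was tested at five concentrations on cells cultured in 96-well plates, with a 48-hour exposure period. TGI is the concentration that stops growth completely.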

Columns and labels:
Test in all cases: NCI tumour cell line growth inhibition, 48 h
SNB-19 CNS = system: SNB-19 CNS
RXF 393 renal = system: RXF 393 renal
CAKI-1 renal = system: CAKI-1 renal
OVCAR-8 ovarian = system: OVCAR-8 ovarian
OVCAR-3 ovarian = system: OVCAR-3 ovarian
A549 NSCLC = system: A549 NSCLC
TK-10 renal = system: TK-10 renal
DU-145 prostate = system: DU-145 prostate
SK-MEL-28 melanoma = system: SK-MEL-28 melanoma
SF-268 CNS = system: SF-268 CNS

SMILES | TGI (SNB-19 CNS) | TGI (RXF 393 renal) | TGI (CAKI-1 renal) | TGI (OVCAR-8 ovarian) | TGI (OVCAR-3 ovarian) | TGI (A549 NSCLC) | TGI (TK-10 renal) | TGI (DU-145 prostate) | TGI (SK-MEL-28 melanoma) | TGI (SF-268 CNS)
N#Cc1nn(-c2ccc(Cl)cc2)c(N)c2c(=N)n3nc(-c4ccccc4)cc3nc12 | > 100 µM | 76.8 µM | > 100 µM | > 100 µM | > 35.5 µM | > 42.1 µM | > 100 µM |  |  | 
Brc1ccc(-c2ccc(-c3ccc(Br)s3)s2)s1 | > 100 µM | > 100 µM |  | > 100 µM | > 100 µM | > 100 µM | > 100 µM | > 100 µM | > 100 µM | > 100 µM
CCCCN(CCCC)CC(=O)c1ccc2cc(Cl)c3ccccc3c2c1 | > 100 µM | 46.2 µM | 78.6 µM | 51.8 µM | > 100 µM | > 100 µM | > 100 µM | > 100 µM |  | 42.1 µM
Cn1c2ccccc2n2c(=O)c(-c3ccc(O)cc3)nnc12 | > 100 µM |  | > 100 µM | > 100 µM |  | > 100 µM | > 100 µM | > 100 µM | > 100 µM | > 100 µM
Fc1ccc(C(=NCc2ccccc2)N2CCOCC2)cc1 | > 100 µM | > 100 µM | > 100 µM | > 100 µM | > 100 µM |  | > 100 µM | > 100 µM | > 100 µM | > 100 µM
N#Cc1ccc(Nc2nc3nc[nH]c3c(=O)[nH]2)cc1 | > 100 µM |  | > 100 µM | > 100 µM | > 100 µM | > 100 µM | > 100 µM | > 100 µM | > 100 µM | > 100 µM
c1ccc(/C(=N/Nc2cnccn2)c2ncccn2)cc1 | > 100 µM | > 100 µM | > 100 µM | > 100 µM | > 100 µM | > 100 µM |  | > 100 µM | > 100 µM | > 100 µM
O=c1[nH]c2ccc(CC(=S)N3CCN(c4ccccc4)CC3)cc2s1 | > 100 µM | 46.4 µM | > 100 µM | 82 µM | > 100 µM |  | > 100 µM | > 100 µM | > 100 µM | > 100 µM
CCOC(=O)Cc1csc(/N=C\c2c(O)c3ccccc3oc2=O)n1 | > 100 µM | > 100 µM | > 100 µM | > 100 µM | 77.1 µM | > 100 µM | > 100 µM |  | > 100 µM | > 100 µM
COC(=O)CCCc1ccc2c(c1)CCC2 | > 100 µM |  | > 100 µM | > 100 µM | > 100 µM | > 100 µM | > 100 µM | > 100 µM | > 100 µM | > 100 µM
COC(=O)CSc1[nH]c2nc(C)nc(Nc3ccccc3)c2c1C#N |  | > 10 µM | > 10 µM | > 10 µM |  | > 10 µM | > 10 µM | > 10 µM | > 10 µM | > 10 µM
